{"source": "patent US20100267561A1", "about": "“HERBICIDAL PYRIDAZINONE DERIVATIVES” (priority 2007, published 2010)", "format_in_all_cases": "in vivo", "key": {"[1]": {"system": "rice (Oryza sativa)", "experiment": "Test B flooded paddy test plant response", "summary_of_the_method": "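Rice, umbrella sedge, ducksalad and barnyardgrass at 2-leaf stage; pots flooded to 3 cm, compounds applied into paddy water, depth held throughout. Greenhouse 13 to 15 days, then visual rating vs untreated controls on 0–100 scale (0 no effect, 100 complete control); dash means no test result.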"}, "[2]": {"system": "woolly cupgrass (Eriochloa villosa)", "experiment": "Test B pre-/postemergence plant response", "summary_of_the_method": "(§1)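 Preemergence and postemergence (plants 2-18 cm, 1- to 4-leaf stage) applications used test chemicals in a non-phytotoxic solvent with surfactant. Plants were held in a greenhouse 13 to 15 days, then rated visually against controls on a 0-100 scale (0 no effect, 100 complete control).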"}, "[3]": {"system": "common (oilseed) sunflower (Helianthus annuus)", "experiment": "Test B pre-/postemergence plant response", "details": "Preemergence", "summary_of_the_method": "as §1"}, "[4]": {"system": "goosegrass (Eleusine indica)", "experiment": "Test B pre-/postemergence plant response", "summary_of_the_method": "as §1"}, "[5]": {"system": "soybean (Glycine max)", "experiment": "Test B pre-/postemergence plant response", "summary_of_the_method": "as §1"}, "[6]": {"system": "green foxtail (Setaria viridis)", "experiment": "Test B pre-/postemergence plant response", "summary_of_the_method": "as §1"}, "[7]": {"system": "catchweed bedstraw (Galium aparine)", "experiment": "Test B pre-/postemergence plant response", "details": "Preemergence", "summary_of_the_method": "as §1"}, "[8]": {"system": "cocklebur (Xanthium strumarium)", "experiment": "Test B pre-/postemergence plant response", "summary_of_the_method": "as §1"}, "[9]": {"system": "velvetleaf (Abutilon theophrasti)", "experiment": "Test B pre-/postemergence plant response", "summary_of_the_method": "as §1"}, "[10]": {"system": "pigweed (Amaranthus retroflexus)", "experiment": "Test B pre-/postemergence plant response", "summary_of_the_method": "as §1"}, "[11]": {"system": "large crabgrass (Digitaria sanguinalis)", "experiment": "Test B pre-/postemergence plant response", "summary_of_the_method": "as §1"}, "[12]": {"system": "wheat (Triticum aestivum)", "experiment": "Test B pre-/postemergence plant response", "summary_of_the_method": "as §1"}, "[13]": {"system": "Russian thistle (Salsola iberica)", "experiment": "Test B pre-/postemergence plant response", "details": "Preemergence", "summary_of_the_method": "as §1"}, "[14]": {"system": "downy bromegrass (Bromus tectorum)", "experiment": "Test B pre-/postemergence plant response", "summary_of_the_method": "as §1"}, "[15]": {"details": "Postemergence, 62 g ai/ha, scale 0 to 100"}, "[16]": {"details": "Postemergence, 125 g ai/ha, scale 0 to 100"}, "[17]": {"details": "Postemergence, 250 g ai/ha, scale 0 to 100"}, "[18]": {"details": "Preemergence, 31 g ai/ha, 0 to 100 scale, 0 no effect, 100 complete control"}, "[19]": {"details": "Preemergence, 62 g ai/ha, scale 0 to 100"}, "[20]": {"details": "Preemergence, 125 g ai/ha, scale 0 to 100"}, "[21]": {"details": "Preemergence, 250 g ai/ha, scale 0 to 100"}, "[22]": {"details": "31 g ai/ha, 0 to 100 scale, 0 no effect, 100 complete control"}, "[23]": {"details": "Postemergence, 31 g ai/ha, scale 0 to 100, 0 no effect, 100 complete control"}}, "data": [{"molecule": "Cc1nn(C)c(=O)c(-n2nc(-c3ccc(Cl)cc3)cc2C)c1O", "note": "[Compound 15]", "values": [{"measurement": "Plant response rating, Rice", "setting": "[1]; Flood (flooded paddy test), 62 g ai/ha, scale 0 to 100, 0 no effect, 100 complete control", "value": 0}, {"measurement": "Plant response rating, Rice", "setting": "[1]; Flood (flooded paddy test), 125 g ai/ha, scale 0 to 100, 0 no effect, 100 complete control", "value": 15}, {"measurement": "Plant response rating, Rice", "setting": "[1]; Flood (flooded paddy test), 250 g ai/ha, scale 0 to 100, 0 no effect, 100 complete control", "value": 70}, {"measurement": "Plant response rating, Rice", "setting": "[1]; Flood, 31 g ai/ha, scale 0 to 100", "value": 0}, {"measurement": "Plant response rating, Cupgrass, Woolly", "setting": "[2]; [15]", "value": 100}, {"measurement": "Plant response rating, Cupgrass, Woolly", "setting": "[2]; [16]", "value": 100}, {"measurement": "Plant response rating, Cupgrass, Woolly", "setting": "[2]; [17]", "value": 100}, {"measurement": "Plant response rating, Cupgrass, Woolly", "setting": "[2]; [18]", "value": 60}, {"measurement": "Plant response rating, Cupgrass, Woolly", "setting": "[2]; [19]", "value": 85}, {"measurement": "Plant response rating, Cupgrass, Woolly", "setting": "[2]; [20]", "value": 90}, {"measurement": "Plant response rating, Cupgrass, Woolly", "setting": "[2]; [21]", "value": 98}, {"measurement": "Plant response rating, Sunflower", "setting": "[3]; [22]", "value": 0}, {"measurement": "Plant response rating, Sunflower", "setting": "[3]; 62 g ai/ha, scale 0 to 100", "value": 0}, {"measurement": "Plant response rating, Sunflower", "setting": "[3]; 250 g ai/ha, scale 0 to 100", "value": 60}, {"measurement": "Plant response rating, Goosegrass", "setting": "[4]; [23]", "value": 45}, {"measurement": "Plant response rating, Goosegrass", "setting": "[4]; [15]", "value": 60}, {"measurement": "Plant response rating, Goosegrass", "setting": "[4]; [16]", "value": 90}, {"measurement": "Plant response rating, Goosegrass", "setting": "[4]; [17]", "value": 100}, {"measurement": "Plant response rating, Goosegrass", "setting": "[4]; [18]", "value": 0}, {"measurement": "Plant response rating, Goosegrass", "setting": "[4]; [19]", "value": 90}, {"measurement": "Plant response rating, Goosegrass", "setting": "[4]; [20]", "value": 90}, {"measurement": "Plant response rating, Goosegrass", "setting": "[4]; [21]", "value": 100}, {"measurement": "Plant response rating, Soybean", "setting": "[5]; [23]", "value": 0}, {"measurement": "Plant response rating, Soybean", "setting": "[5]; [15]", "value": 0}, {"measurement": "Plant response rating, Soybean", "setting": "[5]; [16]", "value": 0}, {"measurement": "Plant response rating, Soybean", "setting": "[5]; [17]", "value": 0}, {"measurement": "Plant response rating, Soybean", "setting": "[5]; [18]", "value": 0}, {"measurement": "Plant response rating, Soybean", "setting": "[5]; [19]", "value": 0}, {"measurement": "Plant response rating, Soybean", "setting": "[5]; [21]", "value": 30}, {"measurement": "Plant response rating, Foxtail, Green", "setting": "[6]; [23]", "value": 95}, {"measurement": "Plant response rating, Foxtail, Green", "setting": "[6]; [15]", "value": 95}, {"measurement": "Plant response rating, Foxtail, Green", "setting": "[6]; [16]", "value": 100}, {"measurement": "Plant response rating, Foxtail, Green", "setting": "[6]; [17]", "value": 100}, {"measurement": "Plant response rating, Foxtail, Green", "setting": "[6]; [18]", "value": 100}, {"measurement": "Plant response rating, Foxtail, Green", "setting": "[6]; [19]", "value": 100}, {"measurement": "Plant response rating, Foxtail, Green", "setting": "[6]; [20]", "value": 100}, {"measurement": "Plant response rating, Foxtail, Green", "setting": "[6]; [21]", "value": 100}, {"measurement": "Plant response rating, Galium", "setting": "[7]; [22]", "value": 0}, {"measurement": "Plant response rating, Galium", "setting": "[7]; 62 g ai/ha, scale 0 to 100", "value": 0}, {"measurement": "Plant response rating, Galium", "setting": "[7]; 125 g ai/ha, scale 0 to 100", "value": 10}, {"measurement": "Plant response rating, Galium", "setting": "[7]; 250 g ai/ha, scale 0 to 100", "value": 100}, {"measurement": "Plant response rating, Cocklebur", "setting": "[8]; [23]", "value": 0}, {"measurement": "Plant response rating, Cocklebur", "setting": "[8]; [15]", "value": 0}, {"measurement": "Plant response rating, Cocklebur", "setting": "[8]; [16]", "value": 0}, {"measurement": "Plant response rating, Cocklebur", "setting": "[8]; [17]", "value": 0}, {"measurement": "Plant response rating, Cocklebur", "setting": "[8]; [18]", "value": 0}, {"measurement": "Plant response rating, Cocklebur", "setting": "[8]; [19]", "value": 0}, {"measurement": "Plant response rating, Cocklebur", "setting": "[8]; [20]", "value": 0}, {"measurement": "Plant response rating, Cocklebur", "setting": "[8]; [21]", "value": 10}, {"measurement": "Plant response rating, Velvetleaf", "setting": "[9]; [23]", "value": 0}, {"measurement": "Plant response rating, Velvetleaf", "setting": "[9]; [15]", "value": 0}, {"measurement": "Plant response rating, Velvetleaf", "setting": "[9]; [16]", "value": 0}, {"measurement": "Plant response rating, Velvetleaf", "setting": "[9]; [17]", "value": 0}, {"measurement": "Plant response rating, Velvetleaf", "setting": "[9]; [18]", "value": 0}, {"measurement": "Plant response rating, Velvetleaf", "setting": "[9]; [19]", "value": 0}, {"measurement": "Plant response rating, Velvetleaf", "setting": "[9]; [21]", "value": 0}, {"measurement": "Plant response rating, Pigweed", "setting": "[10]; [23]", "value": 0}, {"measurement": "Plant response rating, Pigweed", "setting": "[10]; [15]", "value": 0}, {"measurement": "Plant response rating, Pigweed", "setting": "[10]; [16]", "value": 0}, {"measurement": "Plant response rating, Pigweed", "setting": "[10]; [17]", "value": 0}, {"measurement": "Plant response rating, Pigweed", "setting": "[10]; [18]", "value": 0}, {"measurement": "Plant response rating, Pigweed", "setting": "[10]; [19]", "value": 0}, {"measurement": "Plant response rating, Pigweed", "setting": "[10]; [20]", "value": 0}, {"measurement": "Plant response rating, Pigweed", "setting": "[10]; [21]", "value": 0}, {"measurement": "Plant response rating, Crabgrass, Large", "setting": "[11]; [23]", "value": 90}, {"measurement": "Plant response rating, Crabgrass, Large", "setting": "[11]; [15]", "value": 90}, {"measurement": "Plant response rating, Crabgrass, Large", "setting": "[11]; [16]", "value": 98}, {"measurement": "Plant response rating, Crabgrass, Large", "setting": "[11]; [17]", "value": 100}, {"measurement": "Plant response rating, Crabgrass, Large", "setting": "[11]; [18]", "value": 85}, {"measurement": "Plant response rating, Crabgrass, Large", "setting": "[11]; [19]", "value": 100}, {"measurement": "Plant response rating, Crabgrass, Large", "setting": "[11]; [20]", "value": 100}, {"measurement": "Plant response rating, Crabgrass, Large", "setting": "[11]; [21]", "value": 100}, {"measurement": "Plant response rating, Wheat", "setting": "[12]; [23]", "value": 5}, {"measurement": "Plant response rating, Wheat", "setting": "[12]; [15]", "value": 60}, {"measurement": "Plant response rating, Wheat", "setting": "[12]; [16]", "value": 70}, {"measurement": "Plant response rating, Wheat", "setting": "[12]; [17]", "value": 85}, {"measurement": "Plant response rating, Wheat", "setting": "[12]; [18]", "value": 0}, {"measurement": "Plant response rating, Wheat", "setting": "[12]; [19]", "value": 60}, {"measurement": "Plant response rating, Wheat", "setting": "[12]; [20]", "value": 60}, {"measurement": "Plant response rating, Wheat", "setting": "[12]; [21]", "value": 80}, {"measurement": "Plant response rating, Russian Thistle", "setting": "[13]; [22]", "value": 0}, {"measurement": "Plant response rating, Russian Thistle", "setting": "[13]; 250 g ai/ha, scale 0 to 100", "value": 80}, {"measurement": "Plant response rating, Bromegrass, Downy", "setting": "[14]; [23]", "value": 10}, {"measurement": "Plant response rating, Bromegrass, Downy", "setting": "[14]; [15]", "value": 15}, {"measurement": "Plant response rating, Bromegrass, Downy", "setting": "[14]; [16]", "value": 45}, {"measurement": "Plant response rating, Bromegrass, Downy", "setting": "[14]; [17]", "value": 60}, {"measurement": "Plant response rating, Bromegrass, Downy", "setting": "[14]; [18]", "value": 50}, {"measurement": "Plant response rating, Bromegrass, Downy", "setting": "[14]; [19]", "value": 55}, {"measurement": "Plant response rating, Bromegrass, Downy", "setting": "[14]; [20]", "value": 90}, {"measurement": "Plant response rating, Bromegrass, Downy", "setting": "[14]; Preemergence, 250 g ai/ha, scale 0 to 100 (0 no effect, 100 complete control)", "value": 98}]}]}
